In US8598145B2, “Mitochondrially delivered anti-cancer compounds” (priority 2008, dated 2013):

What was measured:
LNCaP, PC-3 = conditions: Shiau et al, 2006; cited from earlier work
MCF7 = conditions: Arya et al; cited from earlier work
B16(F10) = conditions: cited from earlier work
[1] = test system: neoplastIc + SA mammary epithelial cells; conditions: cited from earlier work
[2] = test system: Ras-transformed B9 cells with a defective Complex II; test: Apoptosis in Ras-transformed B1 and B9 cells (FIG. 4C); format: cell-based, Chinese hamster
Procedure: 4C—After 24 h of treatment with Complex II targeting drugs TTFA or MitoVES, Ras transformed B1 and B9 cells were assessed for apoptosis using the Annexin V binding method.
The following cell lines used in this study were obtained from ATCC, unless specified otherwise: Human T lymphoma cells Jurkat, human mesothelioma cells Meso-I, MM-BI, Ist-Mes, Ist-Mes-2 (Pass, H. I. et al. Characteristics of nine newly derived mesothelioma cell lines. Ann. Thorac. Surg. 59, 835-844 (1995)), human breast cancer cells MCF-7 (erbB2-low) and MDA-MB-453 (erbB2-high), human colorectal cells HCT-116, human hepatocarcinoma cells Huh-7, mouse mesothelioma cells AE17 (Jackaman, C. et al. IL-2 intratumoral immunotherapy enhances CD8+ T cells that mediate destruction of tumor cells and tumor-associated vasculature: a novel mechanism for IL-2. J. Immunol. 171, […] (2003), human non-malignant mesothelial cells Met-5A, […] (Claycomb, W. C. et al. HL-1 cells: a cardiac muscle cell line that contracts and retains phenotypic characteristics of the adult cardiomyocyte. Proc. Natl. Acad. Sci. USA 95, 2979-2984 […]) and H9c2, and the human endothelial-like cells EAhy926 (Edgell, C. J., McDonald, C. C. & Graham, J. B. Permanent cell line expressing human factor VIII-related antigen established by hybridization. Proc. Natl. Acad. Sci. USA 80, 3734-3737 (1983)). Jurkat cells were grown in the RPMI medium while DMEM was used for other malignant cell lines and for Met-5A cells, supplemented with 10% FCS and antibiotics. HL-1 cells, maintained in fibronectin/gelatine-coated dishes, were grown in the Claycomb medium supplemented with noradrenalin (Claycomb, W. C. et al. HL-1 cells: a cardiac muscle cell line that contracts and retains phenotypic characteristics of the adult cardiomyocyte. Proc. Natl. Acad. Sci. USA 95, 2979-2984 […]), EAhy926 cells were grown in complete DMEM supplemented with HAT (Edgell, C. J., McDonald, C. C. & Graham, J. B. Permanent cell line expressing human factor VIII-related antigen established by hybridization. Proc. Natl. Acad. Sci. USA 80, 3734-3737 (1983)). Cells deficient in mtDNA (ρ^0 phenotype) were prepared as detailed in Weber, T. et al., (Mitochondria play a central role in apoptosis induced by α-tocopheryl succinate, an agent with anticancer activity. Comparison with receptor-mediated pro-apoptotic signaling. Biochemistry 42, 4277-4291 (2003)). Acquisition of the ρ^0 phenotype was confirmed by lack of expression by the cells of the mtDNA-encoded cytochrome c oxidase subunit II (COXII not shown). […]

MCF-7 = test: MTT viability assay (IC50); format: cell-based, human; conditions: MCF-7, ~60% confluency
Description: (§1) The following cell lines used in this study were obtained from ATCC, unless specified otherwise: Human T lymphoma cells Jurkat, human mesothelioma cells Meso-I, MM-BI, Ist-Mes, Ist-Mes-2 (Pass, H. I. et al. Characteristics of nine newly derived mesothelioma cell lines. Ann. Thorac. Surg. 59, 835-844 (1995)), human breast cancer cells MCF-7 (erbB2-low) and MDA-MB-453 (erbB2-high), human colorectal cells HCT-116, human hepatocarcinoma cells Huh-7, mouse mesothelioma cells AE17 (Jackaman, C. et al. IL-2 intratumoral immunotherapy enhances CD8+ T cells that mediate destruction of tumor cells and tumor-associated vasculature: a novel mechanism for IL-2. J. Immunol. 171, […] (2003), human non-malignant mesothelial cells Met-5A, […] (Claycomb, W. C. et al. HL-1 cells: a cardiac muscle cell line that contracts and retains phenotypic characteristics of the adult cardiomyocyte. Proc. Natl. Acad. Sci. USA 95, 2979-2984 […]) and H9c2, and the human endothelial-like cells EAhy926 (Edgell, C. J., McDonald, C. C. & Graham, J. B. Permanent cell line expressing human factor VIII-related antigen established by hybridization. Proc. Natl. Acad. Sci. USA 80, 3734-3737 (1983)). Jurkat cells were grown in the RPMI medium while DMEM was used for other malignant cell lines and for Met-5A cells, supplemented with 10% FCS and antibiotics. HL-1 cells, maintained in fibronectin/gelatine-coated dishes, were grown in the Claycomb medium supplemented with noradrenalin (Claycomb, W. C. et al. HL-1 cells: a cardiac muscle cell line that contracts and retains phenotypic characteristics of the adult cardiomyocyte. Proc. Natl. Acad. Sci. USA 95, 2979-2984 […]), EAhy926 cells were grown in complete DMEM supplemented with HAT (Edgell, C. J., McDonald, C. C. & Graham, J. B. Permanent cell line expressing human factor VIII-related antigen established by hybridization. Proc. Natl. Acad. Sci. USA 80, 3734-3737 (1983)). Cells deficient in mtDNA (ρ^0 phenotype) were prepared as detailed in Weber, T. et al., (Mitochondria play a central role in apoptosis induced by α-tocopheryl succinate, an agent with anticancer activity. Comparison with receptor-mediated pro-apoptotic signaling. Biochemistry 42, 4277-4291 (2003)). Acquisition of the ρ^0 phenotype was confirmed by lack of expression by the cells of the mtDNA-encoded cytochrome c oxidase subunit II (COXII not shown). Chinese hamster lung fibroblasts deficient in complex I (B10 cells) (See, B. B. et al. Molecular remedy of complex I defects: rotenone-insensitive internal NADH-quinone oxidoreductase of Saccharomyces cerevisiae mitochondria restores the NADH oxidase activity of complex I-deficient mammalian cells. Proc. Natl. Acad. Sci. USA 95, 9167-9171 (1998)) and complex II (CybL^−/−; B9 cells) (Oostveen, F. G., Au, H. C., Meijer, P. J. & Scheffler, I. E. A Chinese hamster mutant cell line with a defect in the integral membrane protein CII-3 of complex II of the mitochondrial electron transport chain. J. Biol. Chem. 270: 26104-26108 (1995)) as well as the parental cells (B1 cells) (Oostveen, F. G., Au, H. C., Meijer, P. J. & Scheffler, I. E. A Chinese hamster mutant cell line with a defect in the integral membrane protein CII-3 of complex II of the mitochondrial electron transport chain. J. Biol. Chem. 270: 26104-26108 (1995)) were grown in DMEM with 10% FCS, antibiotics, 10 mg/ml glucose and non-essential aminoacids.
(§2) Toxicity of α-TOS, VE11S (“VES”), MitoVE3S, MitoVE5S, MitoVE7S, MitoVE9S, MitoVE11S (“MitoVES”), MitoVE11AE (“MitoVEAE”), MitoVE11F (“MitoVEF”), MitoVE11M (“MitoVEM”), and VES4TPP towards cancer cells was assessed on the basis of IC50, as detailed in Turanek, J., et al. ((2008). Liposomal formulation of vitamin E analogs as an efficient and selective anti-cancer treatment. Clin. Cancer Res. (submitted)). […]

Jurkat = test: MTT viability assay (IC50); format: cell-based, human
Description: as §1, §2

Meso-2 = test: MTT viability assay (IC50); format: cell-based, human; conditions: Meso-2, ~60% confluency
Description: as §1, §2

H9c2 = test: MTT viability assay (IC50); format: cell-based, rat; conditions: H9c2, ~60% confluency
Description: as §1, §2

HL-1 = test: MTT viability assay (IC50); format: cell-based, rat; conditions: HL-1, ~60% confluency
Description: as §1, §2

[3] = target: T1, α-tocopherol transfer protein (α-TTP) (Rattus norvegicus, UniProt P41034); conditions: Hosomi et al 1997; cited from earlier work
T1 sequence (P41034 1-278): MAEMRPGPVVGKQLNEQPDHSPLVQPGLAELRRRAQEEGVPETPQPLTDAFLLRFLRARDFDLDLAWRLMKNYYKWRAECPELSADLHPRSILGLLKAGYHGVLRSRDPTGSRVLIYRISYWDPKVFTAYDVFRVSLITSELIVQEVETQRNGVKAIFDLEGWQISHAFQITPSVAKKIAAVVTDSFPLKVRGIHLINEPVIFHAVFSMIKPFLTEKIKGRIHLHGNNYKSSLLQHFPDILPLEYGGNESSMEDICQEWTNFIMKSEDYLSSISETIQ

[4] = Table VI: Jurkat 0.5 × 10^6 per ml, analogs added as EtOH solution, MTT

Cc1c(C)c2c(c(C)c1OC(=O)CCC(=O)O)CCC(C)(CCCC(C)CCCC(C)C)O2 (centres unmarked) [Nr 43]
IC50 (LNCaP, PC-3): 4 to 9 µM

Cc1c(C)c2c(c(C)c1OCCC(=O)O)CCC(C)(CCCC(C)CCCC(C)C)O2 (centres unmarked) [Nr 44]
IC50 (LNCaP, PC-3): 4 to 8 µM

Cc1c(C)c2c(c(C)c1OC(=O)CCC(=O)O)CCC(C)(C)O2 [Nr 46]
IC50 (LNCaP, PC-3): > 100 µM

Cc1c(C)c2c(c(C)c1OC(=O)C(N)CCCCN)CCC(C)(CO)O2 (centres unmarked) [Nr 47]
IC50 (MCF7): 194 µM

CCCCCOCC1(C)CCc2c(C)c(OC(=O)C(N)CCCCN)c(C)c(C)c2O1 (centres unmarked) [Nr 48]
IC50 (MCF7): 22 µM

CCCCC(=O)OCC1(C)CCc2c(C)c(OC(=O)C(N)CCCCN)c(C)c(C)c2O1 (centres unmarked) [Nr 49]
IC50 (MCF7): 15 µM

CC(C)=CCCC(C)=CCCC(C)=CCCC1(C)CCc2cc(O)c(C)c(C)c2O1 (centres unmarked) [Nr 56]
IC50 (B16(F10)): 20 µM
IC50 [1]: 4 µM

CC(C)=CCCC(C)=CCCC(C)=CCCC1(C)CCc2cc(O)cc(C)c2O1 (centres unmarked) [Nr 59]
IC50 (B16(F10)): 10 µM

CC(C)=CCCC(C)=CCCC(C)=CCCC1(C)CCc2cc(O)ccc2O1 (centres unmarked) [Nr 60]
IC50 (B16(F10)): 0.9 µM

O=C(CC(=O)C(F)(F)F)c1cccs1 [TTFA, reference compound]
sensitivity to apoptosis of Ras-transformed B9 cells compared to Ras-transformed B1 cells ([2]; 24 h treatment, Annexin V binding): much less sensitive
sensitivity after reconstitution of Complex II function (human SDHC) in Ras-transformed B9 cells ([2]; B9 cells transfected to express human SDHC): restored the sensitivity

Cc1c(C)c2c(c(C)c1OC(=O)CCC(=O)OCCCC[P+](c1ccccc1)(c1ccccc1)c1ccccc1)CCC(C)(CCCC(C)CCCC(C)CCCC(C)C)O2 (centres unmarked) [VES4TPP]
IC50 (MCF-7): 19 ± 3 µM
IC50 (Jurkat; Jurkat, treated at 0.5 × 10^6 per ml, MTT viability curves): 21 ± 5 µM
IC50 (Jurkat; [4]): 21 ± 5 µM
IC50 (Meso-2): 28 ± 6 µM
IC50 (H9c2): > 100 µM
IC50 (HL-1): > 100 µM

Cc1c(C)c2c(c(C)c1O)CC[C@@](C)(CCC[C@H](C)CCC[C@H](C)CCCC(C)C)O2 [α-TOH, α-tocopherol, reference compound]
relative affinities for α-TTP [3]: 100%
IC50 (Jurkat; [4]): > 100 µM

Cc1cc(O)c(C)c2c1O[C@](C)(CCC[C@H](C)CCC[C@H](C)CCCC(C)C)CC2 [β-tocopherol]
relative affinities for α-TTP [3]: 38%

Cc1c(O)cc2c(c1C)O[C@](C)(CCC[C@H](C)CCC[C@H](C)CCCC(C)C)CC2 [γ-tocopherol]
relative affinities for α-TTP [3]: 9%

Cc1cc(O)cc2c1O[C@](C)(CCC[C@H](C)CCC[C@H](C)CCCC(C)C)CC2 [δ-tocopherol]
relative affinities for α-TTP [3]: 2%
